Counter-ions that a name gives are not always drawn.

Assay [1] has as its system prostaglandin E2 -induced contractions of segments of guinea pig ileum. Kind of assay: Prostaglandin (PGE) Antagonism Assay in guinea pig ileum. It is filed as cell-based. The following applies: dose ratio of EC50 doses of prostaglandin E2; initial test compound concentration 3 micromolar; 37° C. The procedure:
In order to determine the effectiveness of several of the compounds of the present invention ("test compounds") as prostaglandin E2 antagonists,a prostaglandin antagonism assay was conducted, as described below, to determine the ability of these compounds to inhibit prostaglandin E2 -induced contractions of segments of guinea pig ileum. […] Male albino guinea pigs weighing 200 to 500 grams were sacrificed by cervical dislocation. The ilea were then quickly removed from the guinea pigs and placed in a modified Tyrode solution, a solution which is known to those skilled in the art, containing one-half of the usual amount of magnesium ions. Segments of ileum about 2 cm long were then cut and mounted in a 10-mL tissue bath containing the modified Tyrode solution. […] Data for a control prostaglandin E2 dose response curve plotting concentration of prostaglandin E2 versus the intensity of contractions, detected isotonically, was then obtained by experimentally adjusting the dose of the prostaglandin E2 being injected into the tissue bath, in a manner known by those of skill in the art. Solutions or suspensions containing an initial concentration (3 micromolar) of a test compound in modified Tyrode solution ("test solutions/suspensions") were then separately substituted for the control bath solution. Each test solution/suspension was then kept in constant contact with the ileum tissue, except for brief periods to drain the bath in preparation for rinsing with fresh test solution/suspension. A second prostaglandin E2 dose response curve was then generated for prostaglandin E2 in the presence of a test compound. A dose ratio of EC50 doses was then calculated from the results of each test in a manner known by those of skill in the art.

Another assay concerns mice. The assay is described as follows: Writhing Assay (PBQ-induced writhing, analgesia in mice). It is filed as in vivo, mice (Charles River male albino). Conditions: Mus musculus, po, 25 min, intragastric, PBQ i.p. 25 minutes later, writhes <= one-half the median of saline control; for responders at 30 mg/kg: 30 mg per kilogram, read-out: WRITHING ASSAY Number Out of Nine or Ten (mice in which test compound produced analgesia) (converted); for responders at 10 mg/kg: 10 mg per kilogram, read-out: WRITHING ASSAY Number Out of Nine or Ten (mice in which test compound produced analgesia). An excerpt: The Writhing Assay is one of the most widely-used experimental procedures for measuring the analgesic activity of different narcotic and nonnarcotic analgesic agents, and involves the continuous, chemically-induced pain of visceral origin to an animal, such as a mouse or rat. Gyires et al., Arch. int. […] Vander Wende et al., Fed. […] Chemicals which may be used to induce this pain include phenylbenzoquinone (PBQ) and acetic acid. As a result of the chemical irritation to the animal, a characteristic stretching and writhing of the animal (dorsiflexion of the animal's back, extension of its hindlimbs and the strong contraction of its abdominal musculature) will generally occur. […] Drugs which reduce the number of writhes of the animal appear to restore the normal nociceptive threshold of the animal.
Charles River male albino mice, weighing 20 to 30 grams were used in this assay.
Ten mice which were given saline in place of a test compound of the invention were used as a control group.
Five minutes later, each mouse was individually placed into a glass beaker for observation, and the number of writhes occurring during the following ten-minute period was counted.

On to `O=S(=O)(c1ccc(CCc2ccncc2)cc1)N1Cc2ccccc2Oc2ccc(Cl)cc21` [Example 3, 8-chloro-10,11-dihydro-10-4-2-(4-pyridinyl)ethyl!phenyl!sulfonyl!dibenzb,f! 1,4!oxazepine, monohydrochloride], for which the “PGE ANTAGONISM IN GUINEA PIG ILEUM Dose Ratio (DR)” value in assay [1] is given as 1.0. Besides, the responders at 30 mg/kg with mice is 50%. In the case of `O=C(NCc1ccncc1)c1ccc(S(=O)(=O)N2Cc3ccccc3Oc3ccc(Cl)cc32)cc1` [Example 4, 4-(8-chlorodibenzb,f! 1,4!oxazepin-10(11H)yl)sulfonyl!-N-(4-pyridinylmethyl)benzamide, monohydrochloride], the responders at 30 mg/kg with mice was 60%. For `O=C(NCc1cccnc1)c1ccc(S(=O)(=O)N2Cc3ccccc3Oc3ccc(Cl)cc32)cc1` [Example 5, 4-(8-chlorodibenzb,f! 1,4!oxazepin-10(11H)yl) sulfonyl!-N-(3-pyridinylmethyl)benzamide, monohydrochloride], the “PGE ANTAGONISM IN GUINEA PIG ILEUM Dose Ratio (DR)” value in assay [1] was 4.4. For the same compound, in the assay on mice, the responders at 30 mg/kg is 30%. Consider `O=C(c1ccc(/C=C\c2ccncc2)cc1)N1Cc2ccccc2Oc2ccc(Cl)cc21` [Example 8, Compound E, 8-chloro-10,11-dihydro-10-4-2Z-(4-pyridinyl)ethenyl!benzoyl!dibenz b,f! 1 ,4!oxazepine, hydrochloride], for which the “PGE ANTAGONISM IN GUINEA PIG ILEUM Dose Ratio (DR)” value in assay [1] was 4.8. For the same compound, in the assay on mice, the responders at 10 mg/kg was found to be 90%. The like results for `O=C(c1ccc(CCc2ccncc2)cc1)N1Cc2ccccc2Oc2ccc(Cl)cc21` [Example 8, Compound F, 8-chloro-10,11-dihydro-10-4-2-(4-pyridinyl)ethyl!benzoyl!dibenz b,f! 1,4! oxazepine, hydrochloride] were, in that order, 1.1 and 90%. As to `O=C(NCc1ccncc1)c1ccc(C(=O)N2Cc3ccccc3Oc3ccc(Cl)cc32)cc1` [Example 9, 4-(8-chlorodibenzb,f! 1,4!oxazepin-10(11H)-yl)carbonyl!-N-(4-pyridinylmethyl)benzamide, hydrochloride], in assay [1], the “PGE ANTAGONISM IN GUINEA PIG ILEUM Dose Ratio (DR)” value is 2.29. The responders at 10 mg/kg in the assay on mice amounted to 80%. Consider `O=C(NCc1cccnc1)c1ccc(C(=O)N2Cc3ccccc3Oc3ccc(Cl)cc32)cc1` [Example 10, 4-(8-chlorodibenzb,f! 1,4!oxazepin-10(11H)yl)carbonyl!-N-f3,pyridinylmethyl)benzamide, hydrochloride], for which, in assay [1], the “PGE ANTAGONISM IN GUINEA PIG ILEUM Dose Ratio (DR)” value was 3.2. Besides, the responders at 30 mg/kg in the assay on mice was 40%. The like results for `O=C(NCc1ccncc1)c1ccccc1C(=O)N1Cc2ccccc2Oc2ccc(Cl)cc21` [Example 12, 2-(8-chlorodibenzb,f! 1,4!oxazepin-10(11H)yl)carbonyl!-N-(4-pyridinylmethyl)benzamide, hydrochloride] were, in that order, 4.23 and 33.3%. On the same counts, the results for `O=C(NCc1cccnc1)c1ccccc1C(=O)N1Cc2ccccc2Oc2ccc(Cl)cc21` [Example 13, 2-(8-chlorodibenzb,f! 1,4!oxazepin-10 f 11H)yl)carbonyl!-N-(3-pyridinylmethyl)benzamide, hydrochloride] are 1.10 and 50%.

With `O=C(NCc1ccccn1)c1ccccc1C(=O)N1Cc2ccccc2Oc2ccc(Cl)cc21` [Example 14, 2-(8-chlorodibenzb,f! 1,4!oxazepin-10(11H)-yl) carbonyl!-N-(2-pyridinylmethyl!benzamide, dihydrochloride], the “PGE ANTAGONISM IN GUINEA PIG ILEUM Dose Ratio (DR)” value in assay [1] came out at 4.07. Also, the responders at 30 mg/kg in the assay on mice was 30%. In the case of `O=C(NCc1ccncc1)c1cccc(C(=O)N2Cc3ccccc3Oc3ccc(Cl)cc32)c1` [Example 16, 3-f 8-chlorodibenz b,f! 1,4!oxazepin-10(11H)yl)carbonyl!-N-(4-pyridinylmethyl)benzamide, monohydrochloride], the “PGE ANTAGONISM IN GUINEA PIG ILEUM Dose Ratio (DR)” value in assay [1] is 4.67. In the assay with mice, the responders at 30 mg/kg was 80%. The like results for `O=C(NCc1cccnc1)c1cccc(C(=O)N2Cc3ccccc3Oc3ccc(Cl)cc32)c1` [Example 17, 3-(8-chlorodibenzb,f! 1,4!oxazepin-10(11H!yl!carbonyl!-N-(3-pyridinylmethyl)benzamide, monohydrochloride] were, in that order, 66.0 and 50%. The like results for `O=C(NCc1ccccn1)c1cccc(C(=O)N2Cc3ccccc3Oc3ccc(Cl)cc32)c1` [Example 18, 3-(8-chlorodibenzb,f! 1,4!oxazepin-10(11H)yl)carbonyl!-N-(2-pyridinylmethyl!benzamide, hydrochloride] were, in that order, 114 and 70%.

On to `O=C(NCc1ccncc1)c1ccc(CN2Cc3ccccc3Oc3ccc(Cl)cc32)cc1` [Example 27, 4-(8-chlorodibenzb,f! 1,4!oxazepin-10(11H)yl)methyl!-N-(4-pyridinylmethyl)benzamide, hydrochloride], for which, in assay [1], the “PGE ANTAGONISM IN GUINEA PIG ILEUM Dose Ratio (DR)” value is given as 22.7. Moreover, in the assay with mice, the responders at 30 mg/kg was 50%.

In the case of `O=C(NCc1cccnc1)c1ccc(CN2Cc3ccccc3Oc3ccc(Cl)cc32)cc1` [Example 28, 4-(8-chlorodibenzb,f! 1,4!oxazepin-10(11H)yl)methyl!-N-(3-pyridinylmethyl)benzamide, hydrochloride], the “PGE ANTAGONISM IN GUINEA PIG ILEUM Dose Ratio (DR)” value in assay [1] was found to be 3.59. Further, the responders at 30 mg/kg in the assay with mice was 60%.

As for `O=C(NCc1ccccn1)c1ccc(CN2Cc3ccccc3Oc3ccc(Cl)cc32)cc1` [Example 29, 4-(8-chlorodibenz E b,f! 1,4!oxazepin-10(11H)yl)methyl!-N-(2-pyridinylmethyl)benzamide, hydrochloride], the “PGE ANTAGONISM IN GUINEA PIG ILEUM Dose Ratio (DR)” value in assay [1] is given as 10.4. In addition, the responders at 30 mg/kg in the assay with mice is 50%.

Take `O=C(NCc1ccncc1)c1cccc(C(=O)N2Cc3ccccc3Oc3ccc(Cl)cc32)n1` [Example 30, 6-(8-chlorodibenzb,f! 1,4!oxazepin-10(11H)yl)carbonyl!-N-(4-pyridinylmethyl)-2-pyridinecarboxamide, hydrochloride]: the “PGE ANTAGONISM IN GUINEA PIG ILEUM Dose Ratio (DR)” value in assay [1] was found to be 0.81. In the assay on mice, the responders at 30 mg/kg is 70%. The like results for `O=C(NCc1cccnc1)c1cccc(C(=O)N2Cc3ccccc3Oc3ccc(Cl)cc32)n1` [Example 31, 6-(8-chlorodibenzb,f! 1,4!oxazepin-10(11H)yl)carbonyl!-N-(3-pyridinylmethyl)-2-pyridinecarboxamide, hydrochloride] were, in that order, 1.70 and 60%.

`O=C(NCc1ccccn1)c1cccc(C(=O)N2Cc3ccccc3Oc3ccc(Cl)cc32)n1` [Example 32, 6-(8-chlorodibenzb,f! 1,4!oxazepin-10(11H)yl)carbonyl!-N,(2-pyridinylmethyl)-2-pyridinecarboxamide, hydrochloride]: the “PGE ANTAGONISM IN GUINEA PIG ILEUM Dose Ratio (DR)” value in assay [1] amounted to 0.63. The responders at 30 mg/kg in the assay with mice is 30%.

In the case of `O=C(NCc1ccncc1)c1ccc(CN2Cc3ccccc3Oc3ccc(Cl)cc32)cn1` [Example 34, 5-(8-chlorodibenzb,f! 1,4!oxazepin-10(11H)yl)methyl!-N-(4-pyridinylmethyl)-2-pyridinecarboxamide, monohydrochloride], the “PGE ANTAGONISM IN GUINEA PIG ILEUM Dose Ratio (DR)” value in assay [1] was 1.16. In addition, in the assay with mice, the responders at 30 mg/kg was 20%. In the case of `O=C(NCc1cccnc1)c1ccc(CN2Cc3ccccc3Oc3ccc(Cl)cc32)cn1` [Example 35, 5-(8-chlorodibenzb,f! 1,4!oxazepin-10(11H)yl)methyl!-N-(3-pyridinylmethyl)-2-pyridinecarboxamide, monohydrochloride], the responders at 30 mg/kg in the assay on mice was 70%. As for `O=C(NCc1ccccn1)c1ccc(CN2Cc3ccccc3Oc3ccc(Cl)cc32)cn1` [Example 36, 5-(8-chlorodibenzb,f! 1,4!oxazepin-10(11H)yl)methyl!-N-(2-pyridinylmethyl!-2-pyridinecarboxamide, monohydrochloride], the “PGE ANTAGONISM IN GUINEA PIG ILEUM Dose Ratio (DR)” value in assay [1] was 2.6. Also, in the assay with mice, the responders at 30 mg/kg is 77.8%.

Values taken from US5512561A, “Aryl substituted dibenzoxazepine compounds, pharmaceutical compositions and methods of use” (G. D. Searle & Co., priority 1995, dated 1996).
